ChEMBL document CHEMBL1201862, “PubChem BioAssay data set” (2004)
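Growth conditions: 96-well plates. Treatment: test compound, 48 hours, 5 concentrations. Analysis: linear interpolation between bracketing concentrations; unreached endpoints set to highest concentration. At the GI50, growth is halved.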 Activity calls are given as the source filed them. Cut-off read from the data, not from the text of the source: active = GI50 up to about 1.1 µM and inactive = higher.

Experiments:
Experiment in all cases: NCI-60 cell line screen, 48 h
786-0 = tested on: 786-0
A498 = tested on: A498
A549 = tested on: A549
ACHN = tested on: ACHN
BT-549 = tested on: BT-549
CAKI-1 = tested on: CAKI-1
CCRF-CEM = tested on: CCRF-CEM
COLO 205 = tested on: COLO 205
DU-145 = tested on: DU-145
EKVX = tested on: EKVX
HCC 2998 = tested on: HCC 2998
HCT-116 = tested on: HCT-116
HCT-15 = tested on: HCT-15
HL-60 = tested on: HL-60
HOP-62 = tested on: HOP-62
HOP-92 = tested on: HOP-92
HT-29 = tested on: HT-29
Hs-578T = tested on: Hs-578T
IGROV-1 = tested on: IGROV-1
K562 = tested on: K562
KM12 = tested on: KM12
LOX IMVI = tested on: LOX IMVI
M14 = tested on: M14
MCF7 = tested on: MCF7
MDA-MB-231 = tested on: MDA-MB-231
MDA-MB-435 = tested on: MDA-MB-435
MDA-N = tested on: MDA-N
MOLT-4 = tested on: MOLT-4
Malme-3M = tested on: Malme-3M
NCI-H226 = tested on: NCI-H226
NCI-H23 = tested on: NCI-H23
NCI-H460 = tested on: NCI-H460
NCI-H522 = tested on: NCI-H522
NCI/ADR-RES = tested on: NCI/ADR-RES
OVCAR-3 = tested on: OVCAR-3
OVCAR-4 = tested on: OVCAR-4
OVCAR-5 = tested on: OVCAR-5
OVCAR-8 = tested on: OVCAR-8
PC-3 = tested on: PC-3
RPMI-8226 = tested on: RPMI-8226
RXF 393 = tested on: RXF 393
SF-268 = tested on: SF-268
SF-295 = tested on: SF-295
SF-539 = tested on: SF-539
SK-MEL-28 = tested on: SK-MEL-28
SK-MEL-2 = tested on: SK-MEL-2
SK-MEL-5 = tested on: SK-MEL-5
SK-OV-3 = tested on: SK-OV-3
SN12C = tested on: SN12C
SNB-19 = tested on: SNB-19
SNB-75 = tested on: SNB-75
SR = tested on: SR
SW-620 = tested on: SW-620
T47D = tested on: T47D
TK-10 = tested on: TK-10
U-251 = tested on: U-251
UACC-257 = tested on: UACC-257
UACC-62 = tested on: UACC-62
UO-31 = tested on: UO-31

## COC(=O)C1(Cc2ccc(C)cc2)Cc2c(C)cccc2C1=O (stereo not given)
786-0
  GI50: 20.5 µM (inactive)
A498
  GI50: 13.7 µM (inactive)
A549
  GI50: 18.2 µM (inactive)
ACHN
  GI50: 26.5 µM (inactive)
BT-549
  GI50: 16.3 µM (inactive)
CAKI-1
  GI50: 25.7 µM (inactive)
CCRF-CEM
  GI50: 82 µM (inactive)
COLO 205
  GI50: 12.1 µM (inactive)
DU-145
  GI50: 15.3 µM (inactive)
EKVX
  GI50: 18.2 µM (inactive)
HCC 2998
  GI50: 16.8 µM (inactive)
HCT-116
  GI50: 13.3 µM (inactive)
HCT-15
  GI50: 14.2 µM
HL-60
  GI50: 5.6 µM (inactive)
HOP-62
  GI50: 19.3 µM (inactive)
HOP-92
  GI50: 16.6 µM (inactive)
HT-29
  GI50: 8.83 µM (inactive)
Hs-578T
  GI50: 15.9 µM (inactive)
IGROV-1
  GI50: 16.4 µM (inactive)
K562
  GI50: 8.04 µM (inactive)
KM12
  GI50: 6.75 µM (inactive)
LOX IMVI
  GI50: 18.9 µM (inactive)
M14
  GI50: 16.6 µM (inactive)
MCF7
  GI50: 11.2 µM (inactive)
MDA-MB-231
  GI50: 31.1 µM (inactive)
MDA-MB-435
  GI50: 3.08 µM (inactive)
MDA-N
  GI50: 3.27 µM (inactive)
MOLT-4
  GI50: 20 µM (inactive)
Malme-3M
  GI50: 13 µM (inactive)
NCI-H226
  GI50: 15.3 µM (inactive)
NCI-H23
  GI50: 35.3 µM (inactive)
NCI-H460
  GI50: 17.6 µM (inactive)
NCI-H522
  GI50: 11.2 µM (inactive)
NCI/ADR-RES
  GI50: 14.9 µM (inactive)
OVCAR-3
  GI50: 11.7 µM (inactive)
OVCAR-4
  GI50: 20.3 µM (inactive)
OVCAR-5
  GI50: 24.6 µM (inactive)
OVCAR-8
  GI50: 27.7 µM (inactive)
PC-3
  GI50: 12.4 µM (inactive)
RPMI-8226
  GI50: 15.1 µM (inactive)
RXF 393
  GI50: 9.71 µM (inactive)
SF-268
  GI50: 21.8 µM (inactive)
SF-295
  GI50: 15.4 µM (inactive)
SF-539
  GI50: 16.4 µM (inactive)
SK-MEL-28
  GI50: 26 µM (inactive)
SK-MEL-2
  GI50: 12.9 µM (inactive)
SK-MEL-5
  GI50: 12.9 µM (inactive)
SK-OV-3
  GI50: 14.5 µM (inactive)
SN12C
  GI50: 18.3 µM (inactive)
SNB-19
  GI50: 17.7 µM (inactive)
SNB-75
  GI50: 26.4 µM (inactive)
SR
  GI50: 7.24 µM (inactive)
SW-620
  GI50: 10.9 µM (inactive)
T47D
  GI50: 18.5 µM (inactive)
TK-10
  GI50: 26.2 µM (inactive)
U-251
  GI50: 17.1 µM (inactive)
UACC-257
  GI50: 22.1 µM (inactive)
UACC-62
  GI50: 20.8 µM (inactive)
UO-31
  GI50: 24.7 µM (inactive)

## COc1cc(CNc2nc3ccccc3nc2-c2cccs2)cc(OC)c1OC
786-0
  GI50: 25.2 µM (inactive)
A498
  GI50: 18.6 µM (inactive)
A549
  GI50: 18.7 µM (inactive)
ACHN
  GI50: 13.9 µM (inactive)
BT-549
  GI50: 3.1 µM (inactive)
CAKI-1
  GI50: 11.2 µM (inactive)
CCRF-CEM
  GI50: 13.1 µM (inactive)
COLO 205
  GI50: 27.4 µM (inactive)
DU-145
  GI50: 44.4 µM (inactive)
EKVX
  GI50: 29.6 µM (inactive)
HCC 2998
  GI50: 39.1 µM (inactive)
HCT-116
  GI50: 22.9 µM (inactive)
HCT-15
  GI50: 21.9 µM
HL-60
  GI50: 14 µM (inactive)
HOP-62
  GI50: 21.4 µM (inactive)
HOP-92
  GI50: 1.26 µM (inactive)
HT-29
  GI50: 26.9 µM (inactive)
Hs-578T
  GI50: 12.6 µM (inactive)
IGROV-1
  GI50: 20.4 µM (inactive)
K562
  GI50: 17.6 µM (inactive)
KM12
  GI50: 31.4 µM (inactive)
LOX IMVI
  GI50: 17.7 µM (inactive)
MCF7
  GI50: 21.7 µM (inactive)
MDA-MB-231
  GI50: 17.6 µM (inactive)
MDA-MB-435
  GI50: 21.7 µM (inactive)
MDA-N
  GI50: 16.3 µM (inactive)
MOLT-4
  GI50: 7.67 µM (inactive)
Malme-3M
  GI50: 17.9 µM (inactive)
NCI-H226
  GI50: 29.5 µM (inactive)
NCI-H23
  GI50: 14.5 µM (inactive)
NCI-H460
  GI50: 10.5 µM (inactive)
NCI-H522
  GI50: 14 µM (inactive)
NCI/ADR-RES
  GI50: 8.24 µM (inactive)
OVCAR-3
  GI50: 22.6 µM (inactive)
OVCAR-4
  GI50: 2.84 µM (inactive)
OVCAR-5
  GI50: 4.19 µM (inactive)
OVCAR-8
  GI50: 14.3 µM (inactive)
PC-3
  GI50: 11.6 µM (inactive)
RPMI-8226
  GI50: 10.5 µM (inactive)
RXF 393
  GI50: 14 µM (inactive)
SF-268
  GI50: > 100 µM (inactive)
SF-295
  GI50: 33.5 µM (inactive)
SF-539
  GI50: 78.5 µM (inactive)
SK-MEL-28
  GI50: 32.3 µM (inactive)
SK-MEL-5
  GI50: 12.5 µM (inactive)
SK-OV-3
  GI50: 29.8 µM (inactive)
SN12C
  GI50: 12.9 µM (inactive)
SNB-75
  GI50: > 100 µM (inactive)
SR
  GI50: 6.87 µM (inactive)
SW-620
  GI50: 36.7 µM (inactive)
T47D
  GI50: 7.48 µM (inactive)
TK-10
  GI50: 33.8 µM (inactive)
U-251
  GI50: 27.6 µM (inactive)
UACC-257
  GI50: 34 µM (inactive)
UACC-62
  GI50: 13.7 µM (inactive)
UO-31
  GI50: 5.09 µM (inactive)
